# Reference: patent US12077503B2, “Substituted cyclic amides and their use as herbicides” (FMC CORPORATION, priority 2015, dated 2024)
# What was measured:
# Format in all cases: in vivo
# rice (Oryra sativa) = assay: Test B flooded paddy test; details: Oryza sativa, Flood, 250 g ai/ha; scale of 0 to 100 where 0 is no effect and 100 is complete control; read-out: Rice plant response rating
# In short: (§1)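 Compound goes directly into floodwater once pots are flooded 3 cm above soil, targeting plants at two leaves; the water depth is then held for the test duration. Plants sit 13–15 d in a greenhouse and are rated visually, 100 denoting complete control.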
# [1] = tested on: barnyardgrass (Echinochloa crus-galli); assay: Test B flooded paddy test; details: Echinochloa crus-galli, Flood, 250 g ai/ha; scale of 0 to 100 where 0 is no effect and 100 is complete control; read-out: Barnyardgrass plant response rating
# In short: as §1
# [2] = tested on: sedge, umbrella (small-flower umbrella sedge, Cyperus difformis); assay: Test B flooded paddy test; details: Cyperus difformis, Flood, 250 g ai/ha; scale of 0 to 100 where 0 is no effect and 100 is complete control; read-out: Sedge, Umbrella plant response rating
# In short: as §1
# [3] = tested on: ducksalad (Heteranthera limosa); assay: Test B flooded paddy test; details: Heteranthera limosa, Flood, 250 g ai/ha; scale of 0 to 100 where 0 is no effect and 100 is complete control; read-out: Ducksalad plant response rating
# In short: as §1
# [4] = tested on: Galium (catchweed bedstraw, Galium aparine); assay: Test A postemergence; details: Galium, post-emergence, 240 h, 125 g ai/ha, Postemergence; visual injury after approximately 10 d; 0 to 100 scale where 0 is no effect and 100 is complete control; read-out: Plant response rating, Galium
# In short: (§2)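 Visual injury scores from 0, no effect, to 100, complete control, were assigned versus untreated controls roughly 10 d after treatment in the greenhouse. Test chemicals, formulated with surfactant in a non-phytotoxic solvent, were applied to planted seeds as a preemergence soil spray or postemergence to one- to two-leaf plants 2 to 10 cm tall, in loam–sand soil.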
# [5] = tested on: wheat (Triticum aestivum); assay: Test A postemergence; details: Triticum aestivum, post-emergence, 240 h, 125 g ai/ha, Postemergence; visual injury after approximately 10 d; 0 to 100 scale where 0 is no effect and 100 is complete control; read-out: Plant response rating, Wheat
# In short: as §2
# [6] = tested on: ragweed (common ragweed, Ambrosia elatior); assay: Test A postemergence; details: Ambrosia artemisiifolia, post-emergence, 240 h, 125 g ai/ha, Postemergence; visual injury after approximately 10 d; 0 to 100 scale where 0 is no effect and 100 is complete control; read-out: Plant response rating, Ragweed
# In short: as §2
# corn (Zea mays) = assay: Test A postemergence; details: Zea mays, post-emergence, 240 h, 125 g ai/ha, Postemergence; visual injury after approximately 10 d; 0 to 100 scale where 0 is no effect and 100 is complete control
# In short: as §2
# [7] = tested on: giant foxtail (Setaria faberii); assay: Test A postemergence; details: Setaria faberi, post-emergence, 240 h, 125 g ai/ha, Postemergence; visual injury after approximately 10 d; 0 to 100 scale where 0 is no effect and 100 is complete control; read-out: Plant response rating, Foxtail, Giant
# In short: as §2
# [8] = tested on: pigweed (Amaranthus retroflexus); assay: Test A postemergence; details: Amaranthus retroflexus, post-emergence, 240 h, 125 g ai/ha, Postemergence; visual injury after approximately 10 d; 0 to 100 scale where 0 is no effect and 100 is complete control; read-out: Plant response rating, Pigweed
# In short: as §2
# Kochia (Kochia scoparia) [9] = assay: Test A postemergence; details: Bassia scoparia, post-emergence, 240 h, 125 g ai/ha, Postemergence; visual injury after approximately 10 d; 0 to 100 scale where 0 is no effect and 100 is complete control; read-out: Plant response rating, Kochia
# In short: as §2
# [10] = tested on: ryegrass, Italian (Italian ryegrass, Lolium multiflorum); assay: Test A postemergence; details: Lolium multiflorum, post-emergence, 240 h, 125 g ai/ha, Postemergence; visual injury after approximately 10 d; 0 to 100 scale where 0 is no effect and 100 is complete control; read-out: Plant response rating, Ryegrass, Italian
# In short: as §2
# [11] = tested on: blackgrass (Alopecurus myosuroides); assay: Test A postemergence; details: Alopecurus myosuroides, post-emergence, 240 h, 125 g ai/ha, Postemergence; visual injury after approximately 10 d; 0 to 100 scale where 0 is no effect and 100 is complete control; read-out: Plant response rating, Blackgrass
# In short: as §2
# [12] = tested on: ragweed (common ragweed, Ambrosia elatior); assay: Test A preemergence; details: Ambrosia artemisiifolia, pre-emergence, 240 h; for pest or weed control at 500 g/ha: 500 g ai/ha, preemergence, visual injury rating about 10 d after treatment, 0 to 100 scale (0 no effect, 100 complete control), read-out: Ragweed plant response rating; for pest or weed control at 125 g/ha: 125 g ai/ha, Preemergence, visual injury rating after approximately 10 d, read-out: Ragweed plant response rating (0 to 100 scale, 0 is no effect, 100 is complete control)
# In short: as §2
# [13] = tested on: barnyardgrass (Echinochloa crus-galli); assay: Test A preemergence; details: Echinochloa crus-galli, pre-emergence, 240 h; for pest or weed control at 125 g/ha: 125 g ai/ha, Preemergence, visual injury rating after approximately 10 d, read-out: Barnyardgrass plant response rating (0 to 100 scale, 0 is no effect, 100 is complete control); for pest or weed control at 500 g/ha: 500 g ai/ha, preemergence, visual injury rating about 10 d after treatment, 0 to 100 scale (0 no effect, 100 complete control), read-out: Barnyardgrass plant response rating
# In short: as §2
# [14] = tested on: giant foxtail (Setaria faberii); assay: Test A preemergence; details: Setaria faberi, pre-emergence, 240 h; for pest or weed control at 125 g/ha: 125 g ai/ha, Preemergence, visual injury rating after approximately 10 d, read-out: Foxtail, Giant plant response rating (0 to 100 scale, 0 is no effect, 100 is complete control); for pest or weed control at 500 g/ha: 500 g ai/ha, preemergence, visual injury rating about 10 d after treatment, 0 to 100 scale (0 no effect, 100 complete control), read-out: Foxtail, Giant plant response rating
# In short: as §2
# [15] = tested on: pigweed (Amaranthus retroflexus); assay: Test A preemergence; details: Amaranthus retroflexus, pre-emergence, 240 h; for pest or weed control at 125 g/ha: 125 g ai/ha, Preemergence, visual injury rating after approximately 10 d, read-out: Pigweed plant response rating (0 to 100 scale, 0 is no effect, 100 is complete control); for pest or weed control at 500 g/ha: 500 g ai/ha, preemergence, visual injury rating about 10 d after treatment, 0 to 100 scale (0 no effect, 100 complete control), read-out: Pigweed plant response rating
# Kochia (Kochia scoparia) [16] = assay: Test A preemergence; details: Bassia scoparia, pre-emergence, 240 h; for pest or weed control at 125 g/ha: 125 g ai/ha, Preemergence, visual injury rating after approximately 10 d, read-out: Kochia plant response rating (0 to 100 scale, 0 is no effect, 100 is complete control); for pest or weed control at 500 g/ha: 500 g ai/ha, preemergence, visual injury rating about 10 d after treatment, 0 to 100 scale (0 no effect, 100 complete control), read-out: Kochia plant response rating
# In short: as §2
# [17] = tested on: ryegrass, Italian (Italian ryegrass, Lolium multiflorum); assay: Test A preemergence; details: Lolium multiflorum, pre-emergence, 240 h; for pest or weed control at 125 g/ha: 125 g ai/ha, Preemergence, visual injury rating after approximately 10 d, read-out: Ryegrass, Italian plant response rating (0 to 100 scale, 0 is no effect, 100 is complete control); for pest or weed control at 500 g/ha: 500 g ai/ha, preemergence, visual injury rating about 10 d after treatment, 0 to 100 scale (0 no effect, 100 complete control), read-out: Ryegrass, Italian plant response rating
# In short: as §2
smiles,measurement,setting,value
CN1C[C@H](c2cc(F)cc(Cl)c2)[C@@H](C(=O)Nc2ccccc2F)C1=O [Compound 976],pest or weed control at 250 g/ha,rice (Oryra sativa),20%
same,pest or weed control at 250 g/ha,[1],65%
same,pest or weed control at 250 g/ha,[2],0%
same,pest or weed control at 250 g/ha,[3],95%
same,pest or weed control at 125 g/ha,[4],0%
same,plant injury at 125 g/ha,[5],40%
same,pest or weed control at 125 g/ha,[6],0%
same,"Corn plant response rating (crop injury, 0 = no effect, 100 = complete kill) at 125 g/ha",corn (Zea mays),60%
same,pest or weed control at 125 g/ha,[7],90%
same,pest or weed control at 125 g/ha,[8],0%
same,pest or weed control at 125 g/ha,Kochia (Kochia scoparia) [9],30%
same,pest or weed control at 125 g/ha,[10],20%
same,pest or weed control at 125 g/ha,[11],40%
same,pest or weed control at 500 g/ha,[12],90%
same,pest or weed control at 125 g/ha,[13],90%
same,pest or weed control at 500 g/ha,[13],100%
same,pest or weed control at 125 g/ha,[14],90%
same,pest or weed control at 500 g/ha,[14],90%
same,pest or weed control at 125 g/ha,[15],0%
same,pest or weed control at 500 g/ha,[15],50%
same,pest or weed control at 125 g/ha,Kochia (Kochia scoparia) [16],70%
same,pest or weed control at 500 g/ha,Kochia (Kochia scoparia) [16],90%
same,pest or weed control at 125 g/ha,[17],50%
same,pest or weed control at 500 g/ha,[17],80%
COc1cc(OC)cc([C@H]2CN(C)C(=O)[C@@H]2C(=O)Nc2ccccc2F)c1 [Compound 980],pest or weed control at 250 g/ha,rice (Oryra sativa),30%
same,pest or weed control at 250 g/ha,[1],60%
same,pest or weed control at 250 g/ha,[2],0%
same,pest or weed control at 250 g/ha,[3],0%
same,pest or weed control at 125 g/ha,[4],0%
same,plant injury at 125 g/ha,[5],0%
same,pest or weed control at 125 g/ha,[6],0%
same,"Corn plant response rating (crop injury, 0 = no effect, 100 = complete kill) at 125 g/ha",corn (Zea mays),0%
same,pest or weed control at 125 g/ha,[7],90%
same,pest or weed control at 125 g/ha,[8],0%
same,pest or weed control at 125 g/ha,Kochia (Kochia scoparia) [9],0%
same,pest or weed control at 125 g/ha,[10],0%
same,pest or weed control at 125 g/ha,[11],0%
same,pest or weed control at 125 g/ha,[12],0%
same,pest or weed control at 500 g/ha,[12],20%
same,pest or weed control at 125 g/ha,[13],90%
same,pest or weed control at 500 g/ha,[13],100%
same,pest or weed control at 125 g/ha,[14],90%
same,pest or weed control at 500 g/ha,[14],100%
same,pest or weed control at 125 g/ha,[15],0%
same,pest or weed control at 500 g/ha,[15],0%
same,pest or weed control at 125 g/ha,Kochia (Kochia scoparia) [16],0%
same,pest or weed control at 500 g/ha,Kochia (Kochia scoparia) [16],90%
same,pest or weed control at 125 g/ha,[17],20%
same,pest or weed control at 500 g/ha,[17],30%
CSc1ccccc1NC(=O)[C@H]1C(=O)N(C)C[C@@H]1c1ccc(C)c(F)c1 [Compound 983],pest or weed control at 250 g/ha,rice (Oryra sativa),0%
same,pest or weed control at 250 g/ha,[1],30%
same,pest or weed control at 250 g/ha,[2],0%
same,pest or weed control at 250 g/ha,[3],100%
same,pest or weed control at 125 g/ha,[4],30%
same,plant injury at 125 g/ha,[5],30%
same,pest or weed control at 125 g/ha,[6],0%
same,"Corn plant response rating (crop injury, 0 = no effect, 100 = complete kill) at 125 g/ha",corn (Zea mays),20%
same,pest or weed control at 125 g/ha,[7],90%
same,pest or weed control at 125 g/ha,[8],0%
same,pest or weed control at 125 g/ha,Kochia (Kochia scoparia) [9],50%
same,pest or weed control at 125 g/ha,[10],20%
same,pest or weed control at 125 g/ha,[11],30%
same,pest or weed control at 125 g/ha,[12],70%
same,pest or weed control at 500 g/ha,[12],100%
same,pest or weed control at 125 g/ha,[13],90%
same,pest or weed control at 500 g/ha,[13],100%
same,pest or weed control at 125 g/ha,[14],100%
same,pest or weed control at 500 g/ha,[14],100%
same,pest or weed control at 125 g/ha,[15],0%
same,pest or weed control at 500 g/ha,[15],40%
same,pest or weed control at 125 g/ha,Kochia (Kochia scoparia) [16],90%
same,pest or weed control at 500 g/ha,Kochia (Kochia scoparia) [16],90%
same,pest or weed control at 125 g/ha,[17],30%
same,pest or weed control at 500 g/ha,[17],60%
